Results from publication PMC8222254, “Self-assembly of an anion receptor with metal-dependent kinase inhibition and potent in vitro anti-cancer properties” (Nature Communications, 2021).
Several values for one entry are separate records, joined by “and”; a condition that tells them apart may be missing. Equal values may be shown once.

Columns and labels:
Experiment in all cases: Kinase inhibition screen, cell-free 33P ATP assay at 10 μM
Type in all cases: biochemical
[1] = molecular target: T1, 140 purified human kinases (Homo sapiens, UniProt Q99683)
T1 sequence (Q99683 1-1374): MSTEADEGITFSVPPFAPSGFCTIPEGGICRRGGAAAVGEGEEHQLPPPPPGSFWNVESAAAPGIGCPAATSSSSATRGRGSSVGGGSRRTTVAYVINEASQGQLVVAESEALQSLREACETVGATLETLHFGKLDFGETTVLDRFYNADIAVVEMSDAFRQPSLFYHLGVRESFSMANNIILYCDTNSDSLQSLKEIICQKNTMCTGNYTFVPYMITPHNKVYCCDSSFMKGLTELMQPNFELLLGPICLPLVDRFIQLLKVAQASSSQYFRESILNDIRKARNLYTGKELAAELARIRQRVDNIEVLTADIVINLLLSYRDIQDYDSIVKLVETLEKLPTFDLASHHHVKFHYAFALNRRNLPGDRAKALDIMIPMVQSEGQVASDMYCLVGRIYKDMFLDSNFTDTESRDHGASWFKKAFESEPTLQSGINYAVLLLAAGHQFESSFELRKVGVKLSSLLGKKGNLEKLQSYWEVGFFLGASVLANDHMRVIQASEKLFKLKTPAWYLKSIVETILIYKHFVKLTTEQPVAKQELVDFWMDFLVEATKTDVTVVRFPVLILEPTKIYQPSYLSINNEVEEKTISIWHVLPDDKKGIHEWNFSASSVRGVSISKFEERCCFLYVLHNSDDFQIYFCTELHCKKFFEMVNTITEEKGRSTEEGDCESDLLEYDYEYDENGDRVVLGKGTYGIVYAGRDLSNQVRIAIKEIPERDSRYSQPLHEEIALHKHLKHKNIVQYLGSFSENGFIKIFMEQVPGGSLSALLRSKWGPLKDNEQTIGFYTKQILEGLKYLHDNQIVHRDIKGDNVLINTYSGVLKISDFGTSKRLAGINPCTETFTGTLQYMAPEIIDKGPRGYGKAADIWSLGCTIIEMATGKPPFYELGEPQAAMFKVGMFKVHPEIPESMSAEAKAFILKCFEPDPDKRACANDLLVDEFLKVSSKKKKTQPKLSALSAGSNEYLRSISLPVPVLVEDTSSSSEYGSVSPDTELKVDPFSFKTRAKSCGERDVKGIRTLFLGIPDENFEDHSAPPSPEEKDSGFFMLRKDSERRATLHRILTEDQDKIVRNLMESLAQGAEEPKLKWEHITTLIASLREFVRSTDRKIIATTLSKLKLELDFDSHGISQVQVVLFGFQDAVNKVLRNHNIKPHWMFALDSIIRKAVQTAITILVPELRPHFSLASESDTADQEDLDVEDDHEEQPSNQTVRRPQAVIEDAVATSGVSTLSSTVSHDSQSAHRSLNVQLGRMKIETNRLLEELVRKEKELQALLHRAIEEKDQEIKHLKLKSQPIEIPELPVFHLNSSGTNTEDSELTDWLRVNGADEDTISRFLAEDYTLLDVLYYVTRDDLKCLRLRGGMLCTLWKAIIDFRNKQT
Description: (§1) [L2Cu3]^6+ and [L2Zn3]^6+ were submitted to the MRC Protein Phosphorylation and Ubiquitination Unit International Centre for Kinase Profiling (University of Dundee) and tested in duplicate (at 10 μM) against a series of 140 purified human kinases in a cell-free kinase assay using ^33P ATP[55],[56]. The kinase gene IDs from the screen were then translated into common IDs (HGNC symbol) using biomaRt package[57],[58] in R[59] and R Studio[60] and used as input to the KinMap programme.

[2] = molecular target: 140 purified human kinases (Homo sapiens, UniProt O75716)
Chain of 140 purified human kinases (Homo sapiens, UniProt O75716) (O75716 whole entry): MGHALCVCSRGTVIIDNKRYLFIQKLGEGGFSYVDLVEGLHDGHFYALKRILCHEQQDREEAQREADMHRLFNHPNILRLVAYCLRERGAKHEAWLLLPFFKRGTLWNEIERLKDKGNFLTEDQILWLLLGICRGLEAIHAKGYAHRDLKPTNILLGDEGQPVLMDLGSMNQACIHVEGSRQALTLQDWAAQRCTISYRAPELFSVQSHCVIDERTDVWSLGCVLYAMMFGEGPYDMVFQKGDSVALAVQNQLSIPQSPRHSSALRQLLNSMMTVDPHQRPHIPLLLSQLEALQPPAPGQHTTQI
Description: as §1

[3] = molecular target: T2, 140 purified human kinases (Homo sapiens, UniProt Q15139)
T2 sequence (Q15139 1-912): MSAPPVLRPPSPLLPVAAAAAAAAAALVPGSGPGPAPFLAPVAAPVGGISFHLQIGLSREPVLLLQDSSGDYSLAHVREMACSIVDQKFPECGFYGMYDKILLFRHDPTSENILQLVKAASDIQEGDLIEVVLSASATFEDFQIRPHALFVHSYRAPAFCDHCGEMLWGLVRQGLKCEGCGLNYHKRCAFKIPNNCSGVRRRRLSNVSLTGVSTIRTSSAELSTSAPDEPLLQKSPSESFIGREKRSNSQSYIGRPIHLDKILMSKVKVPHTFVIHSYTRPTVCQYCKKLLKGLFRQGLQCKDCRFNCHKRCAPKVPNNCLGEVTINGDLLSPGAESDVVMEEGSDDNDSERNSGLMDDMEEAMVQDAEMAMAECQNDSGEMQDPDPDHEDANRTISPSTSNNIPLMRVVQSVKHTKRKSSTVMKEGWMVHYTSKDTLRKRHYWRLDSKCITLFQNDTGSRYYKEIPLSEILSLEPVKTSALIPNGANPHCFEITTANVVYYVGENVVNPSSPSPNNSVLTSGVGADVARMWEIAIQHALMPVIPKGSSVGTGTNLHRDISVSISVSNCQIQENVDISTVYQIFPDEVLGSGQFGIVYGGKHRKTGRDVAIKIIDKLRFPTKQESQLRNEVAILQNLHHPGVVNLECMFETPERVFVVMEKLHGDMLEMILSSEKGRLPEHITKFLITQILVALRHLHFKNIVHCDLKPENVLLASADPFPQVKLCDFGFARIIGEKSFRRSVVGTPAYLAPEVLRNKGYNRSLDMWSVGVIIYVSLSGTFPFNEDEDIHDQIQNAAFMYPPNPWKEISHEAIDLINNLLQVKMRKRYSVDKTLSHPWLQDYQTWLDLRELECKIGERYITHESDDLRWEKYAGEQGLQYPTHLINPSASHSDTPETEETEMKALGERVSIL
Description: as §1

## [Cu+2].[Cu+2].[Cu+2].c1ccc(-c2csc(NCCN(CCNc3nc(-c4ccccn4)cs3)CCNc3nc(-c4ccccn4)cs3)n2)nc1.c1ccc(-c2csc(NCCN(CCNc3nc(-c4ccccn4)cs3)CCNc3nc(-c4ccccn4)cs3)n2)nc1 [[L2Cu3]6+]
[1]; ASK1
  % Inhibition Run 1: 16.4%
  % Inhibition Run 2: 15.5%
  % Inhibition, Mean: 16%
  mean % activity: 84%
[1]; ASK1, Run 1
  % activity: 83.6%
[1]; ASK1, Run 2
  % activity: 84.5%
[2]; MPSK1
  % Inhibition Run 1: 71.3%
  % Inhibition Run 2: 60%
  % Inhibition, Mean: 66%
  mean % activity: 34%
[2]; MPSK1, Run 1
  % activity: 28.7%
[2]; MPSK1, Run 2
  % activity: 40%
[3]; PKD1
  % Inhibition Run 1: 73%
  % Inhibition Run 2: 71.7%
  % Inhibition, Mean: 72%
  mean % activity: 28%
[3]; PKD1, Run 1
  % activity: 27%
[3]; PKD1, Run 2
  % activity: 28.3%

## CC(=O)[O-].CC(=O)[O-].CC(=O)[O-].CC(=O)[O-].CC(=O)[O-].CC(=O)[O-].[Zn+2].[Zn+2].[Zn+2].c1ccc(-c2csc(NCCN(CCNc3nc(-c4ccccn4)cs3)CCNc3nc(-c4ccccn4)cs3)n2)nc1.c1ccc(-c2csc(NCCN(CCNc3nc(-c4ccccn4)cs3)CCNc3nc(-c4ccccn4)cs3)n2)nc1 [[L2Zn3]6+]
[1]; ASK1
  % Inhibition, Mean: 27%
  % Inhibition, Run 1 / Run 2: 31% and 24%
  mean % activity: 73%
[1]; ASK1, duplicate runs
  % activity: 70% and 76%
[2]; MPSK1
  % Inhibition, Mean: 22%
  mean % activity: 79%
[2]; MPSK1, duplicate runs
  % activity: 71% and 86%
[3]; PKD1
  % Inhibition, Mean: 45%
  % Inhibition, Run 1 / Run 2: 50% and 40%
  mean % activity: 55%
[3]; PKD1, duplicate runs
  % activity: 50% and 60%
